Measured values from DBAASP.
In brackets after ≈: the same amount, converted by molar mass. Values belong to the compound of their own block, whether it stands above or below them.

Legend:
Test in all cases: ≥ marks a high value that may be exact or a test limit, other limits are often not marked, values filed in µg/mL are converted to µM
[1] = system: Pseudomonas aeruginosa H1001
[2] = system: Staphylococcus epidermidis ATCC 12228
[3] = system: Escherichia coli DH5alpha
[4] = system: Micrococcus luteus ATCC 4698
[5] = system: Staphylococcus aureus ATCC 6538
[6] = system: Bacillus subtilis ATCC 6633
[7] = system: Shigella dysenteriae ATCC 9752
[8] = system: Pseudomonas aeruginosa ATCC 27853
[9] = system: Klebsiella pneumoniae ATCC 10031
[10] = system: Escherichia coli ATCC 25922
[11] = system: Micrococcus luteus ATCC 10240
[12] = system: Staphylococcus aureus ATCC 6538P
[13] = system: Salmonella enterica subsp. enterica serovar Typhimurium ATCC 14028
[14] = system: Escherichia coli W160-37
[15] = system: Pseudomonas aeruginosa
[16] = system: Staphylococcus aureus
[17] = system: Acinetobacter baumannii ATCC 19606
[18] = system: Staphylococcus aureus ATCC 29213
[19] = system: Escherichia coli
[20] = system: Acinetobacter baumannii
[21] = system: Klebsiella pneumoniae
[22] = system: Staphylococcus aureus MR
[23] = system: Klebsiella pneumoniae ATCC 13883
[24] = system: Escherichia coli JM109

MIC [1]: ≥ 42.4 µM
SMILES: CC[C@H](C)[C@H](NC(=O)[C@H](C)N)C(=O)N[C@@H](CCCCN)C(=O)N[C@@H](CC(C)C)C(=O)N[C@@H](CC(C)C)C(=O)N[C@@H](CS)C(=O)N[C@@H](CCCN=C(N)N)C(=O)N[C@H](C(=O)N[C@@H](Cc1cnc[nH]1)C(=O)N[C@@H](CCCCN)C(=O)O)C(C)C [AIKLLCRVHK]

MIC [1]: ≥ 173 µM
SMILES: CC[C@H](C)[C@H](NC(=O)[C@H](C)NC(=O)[C@@H](NC(=O)[C@H](CCCCN)NC(=O)[C@H](CCCCN)NC(=O)[C@H](Cc1cnc[nH]1)NC(=O)[C@@H](NC(=O)[C@H](CCCN=C(N)N)NC(=O)[C@@H](N)CS)C(C)C)[C@@H](C)CC)C(=O)N[C@@H](CO)C(=O)O [CRVHKKIAIS]

MIC [2]: 35.7 µM (≈ 48 µg/mL) | MIC [3]: ≥ 74.4 µM | MIC [4]: 11.9 µM (≈ 16 µg/mL) | MIC [5]: 20.8 µM (≈ 28 µg/mL)
SMILES: CC(C)C[C@H](NC(=O)[C@H](CC(C)C)NC(=O)[C@H](CCCCN)NC(=O)[C@H](CO)NC(=O)[C@H](CC(C)C)NC(=O)[C@H](C)NC(=O)[C@H](CCCCN)NC(=O)[C@H](C)NC(=O)[C@H](CC(C)C)NC(=O)[C@H](C)NC(=O)CNC(=O)[C@H](CC(C)C)NC(=O)[C@@H](N)Cc1ccccc1)C(=O)O [FLGALAKALSKLL]

MIC [2]: 11.4 µM (≈ 16 µg/mL) | MIC [3]: 28.4 µM (≈ 40 µg/mL) | MIC [4]: 5.69 µM (≈ 8 µg/mL) | MIC [5]: 9.24 µM (≈ 13 µg/mL)
SMILES: CC(C)C[C@H](NC(=O)[C@@H](NC(=O)[C@H](CCCCN)NC(=O)[C@H](CO)NC(=O)[C@H](CC(C)C)NC(=O)[C@H](C)NC(=O)[C@H](CCCCN)NC(=O)[C@H](Cc1ccccc1)NC(=O)[C@H](CC(C)C)NC(=O)[C@H](C)NC(=O)CNC(=O)[C@H](CC(C)C)NC(=O)[C@@H](N)Cc1ccccc1)C(C)C)C(=O)O [FLGALFKALSKVL]

MIC [6]: 4.42 µM (≈ 6.3 µg/mL) | MIC [7]: 17.6 µM (≈ 25 µg/mL) | MIC [8]: 17.6 µM (≈ 25 µg/mL) | MIC [2]: 4.42 µM (≈ 6.3 µg/mL) | MIC [9]: 8.78 µM (≈ 12.5 µg/mL) | MIC [10]: 8.78 µM (≈ 12.5 µg/mL) | MIC [11]: 2.18 µM (≈ 3.1 µg/mL) | MIC [12]: 8.78 µM (≈ 12.5 µg/mL) | MIC [13]: 35.1 µM (≈ 50 µg/mL)
SMILES: CC(C)C[C@H](NC(=O)[C@H](Cc1c[nH]c2ccccc12)NC(=O)CNC(=O)[C@H](CC(C)C)NC(=O)[C@@H](N)Cc1ccccc1)C(=O)N[C@@H](Cc1ccccc1)C(=O)N[C@@H](CCCCN)C(=O)N[C@@H](Cc1c[nH]c2ccccc12)C(=O)N[C@@H](C)C(=O)N[C@@H](CCCCN)C(=O)N[C@@H](CCCCN)C(N)=O [FLGWLFKWAKK]

MIC [14]: ≥ 93.5 µM
SMILES: CC[C@H](C)[C@H](NC(=O)[C@H](CCCCN)NC(=O)[C@H](CCCN=C(N)N)NC(=O)[C@@H]1CCCN1C(=O)[C@@H](NC(=O)[C@H](CC(C)C)NC(=O)[C@H](CC(C)C)NC(=O)[C@H](CC(C)C)NC(=O)[C@@H](N)Cc1ccccc1)[C@@H](C)CC)C(=O)N[C@H](C(=O)N[C@H](C(=O)N[C@@H](C)C(=O)N[C@@H](CC(C)C)C(N)=O)[C@@H](C)O)C(C)C [FLLLIPRKIVTAL]

MIC [1]: 8.5 µM (≈ 16 µg/mL)
SMILES: CC(C)C[C@H](NC(=O)[C@@H](N)Cc1ccccc1)C(=O)N1CCC[C@H]1C(=O)N[C@@H](CCCCN)C(=O)N[C@@H](CCCCN)C(=O)N[C@@H](Cc1ccccc1)C(=O)N[C@@H](CCCN=C(N)N)C(=O)N[C@@H](Cc1c[nH]c2ccccc12)C(=O)N[C@@H](Cc1c[nH]c2ccccc12)C(=O)N[C@@H](CCCCN)C(=O)N[C@@H](Cc1ccc(O)cc1)C(=O)N[C@@H](CCCN=C(N)N)C(=O)N[C@@H](CCCCN)C(N)=O [FLPKKFRWWKYRK]

MIC [8]: 2 µM (≈ 4.7 µg/mL) | MIC [15]: 2.83 µM (≈ 6.65 µg/mL) | MIC [16]: 1 µM (≈ 2.35 µg/mL) | MIC [17]: 0.707 µM (≈ 1.66 µg/mL) | MIC [18]: 0.354 µM (≈ 0.831 µg/mL) | MIC [10]: 0.177 µM (≈ 0.415 µg/mL) | MIC [19]: 0.25 µM (≈ 0.587 µg/mL) | MIC [20]: 0.707 µM (≈ 1.66 µg/mL) | MIC [21]: 2.83 µM (≈ 6.65 µg/mL) | MIC [22]: 4 µM (≈ 9.4 µg/mL) | MIC [23]: 0.707 µM (≈ 1.66 µg/mL)
SMILES: CC[C@H](C)[C@H](NC(=O)CN)C(=O)N[C@@H](CCCCN)C(=O)N[C@@H](CCCCN)C(=O)N[C@@H](Cc1c[nH]c2ccccc12)C(=O)N[C@H](C(=O)N[C@@H](CCCCN)C(=O)NCC(=O)N[C@H](C(=O)N[C@@H](C)C(=O)N[C@@H](CCCCN)C(=O)NCC(=O)N[C@H](C(=O)N[C@@H](C)C(=O)N[C@@H](CCCCN)C(=O)N[C@@H](CC(=O)O)C(=O)N[C@@H](CC(C)C)C(=O)N[C@@H](C)C(=O)N[C@@H](CCCCN)C(=O)N[C@@H](CCCCN)C(=O)N[C@H](C(=O)N[C@@H](CC(C)C)C(N)=O)[C@@H](C)CC)C(C)C)C(C)C)C(C)C [GIKKWVKGVAKGVAKDLAKKIL]

MIC [14]: ≥ 35 µM
SMILES: CC[C@H](C)[C@H](N)C(=O)N[C@H](C(=O)N[C@@H](CO)C(=O)N[C@H](C(=O)N[C@H](C(=O)NCC(=O)N[C@@H](CC(=O)O)C(=O)N[C@@H](CC(C)C)C(=O)N[C@H](C(=O)N[C@@H](CCCCN)C(=O)N[C@@H](Cc1c[nH]c2ccccc12)C(=O)N[C@H](C(=O)N[C@H](C(=O)N[C@@H](CCCCN)C(=O)N[C@H](C(=O)N[C@H](C(=O)O)C(C)C)[C@@H](C)O)[C@@H](C)CC)[C@@H](C)CC)C(C)C)[C@@H](C)CC)[C@@H](C)O)[C@@H](C)CC [IISTIGDLVKWIIKTV]

MIC [16]: 3.46 µM (≈ 6.28 µg/mL) | MIC [14]: 3 µM (≈ 5.44 µg/mL)
SMILES: CC[C@H](C)[C@H](N)C(=O)N[C@H](C(=O)N[C@@H](CO)C(=O)N[C@H](C(=O)N[C@H](C(=O)NCC(=O)N[C@@H](CCCCN)C(=O)N[C@@H](CC(C)C)C(=O)N[C@H](C(=O)N[C@@H](CCCCN)C(=O)N[C@@H](Cc1c[nH]c2ccccc12)C(=O)N[C@H](C(=O)N[C@H](C(=O)N[C@@H](CCCCN)C(=O)N[C@H](C(=O)N[C@H](C(=O)O)C(C)C)[C@@H](C)O)[C@@H](C)CC)[C@@H](C)CC)C(C)C)[C@@H](C)CC)[C@@H](C)O)[C@@H](C)CC [IISTIGKLVKWIIKTV]

MIC [1]: 5.82 µM (≈ 8 µg/mL)
SMILES: CC[C@H](C)[C@H](NC(=O)[C@H](CCSC)NC(=O)[C@H](Cc1c[nH]c2ccccc12)NC(=O)[C@H](Cc1c[nH]c2ccccc12)NC(=O)[C@H](CC(C)C)NC(=O)[C@@H](N)CCCCN)C(=O)N[C@@H](CCCN=C(N)N)C(=O)N[C@@H](CCCN=C(N)N)C(=O)N[C@@H](Cc1c[nH]c2ccccc12)C(=O)O [KLWWMIRRW]

MIC [16]: 47.8 µM | MIC [24]: 17.9 µM | MIC [12]: 7.46 µM
SMILES: CC[C@H](C)[C@H](NC(=O)[C@H](C)NC(=O)[C@H](CC(C)C)NC(=O)[C@H](CS)NC(=O)[C@H](Cc1cnc[nH]1)NC(=O)[C@H](C)NC(=O)[C@H](C)NC(=O)[C@H](CS)NC(=O)[C@@H](N)CC(C)C)C(=O)N[C@@H](CC(C)C)C(=O)N[C@@H](CCCN=C(N)N)C(=O)N[C@@H](CCCN=C(N)N)C(N)=O [LCAAHCLAILRR]

MIC [4]: 17 µM (≈ 24.6 µg/mL)
SMILES: CC(C)C[C@@H]1NC(=O)[C@H](CCCN=C(N)N)NC(=O)[C@H](Cc2cnc[nH]2)NC(=O)[C@H](Cc2c[nH]c3ccccc23)NC(=O)CNC(=O)CNC(=O)[C@@H](NC(=O)[C@H](Cc2ccc(O)cc2)NC(=O)CNC(=O)CNC(=O)[C@@H](N)CO)CSSC[C@@H](C(=O)O)NC(=O)[C@H](CCCN=C(N)N)NC1=O [SGGYCGGWHRLRC]

MIC [4]: 12 µM (≈ 25.3 µg/mL)
SMILES: C[C@@H](O)[C@H](NC(=O)[C@@H]1CSSC[C@H](NC(=O)[C@H](Cc2ccc(O)cc2)NC(=O)CNC(=O)CNC(=O)[C@@H](N)CO)C(=O)NCC(=O)NCC(=O)N[C@@H](Cc2c[nH]c3ccccc23)C(=O)N[C@@H](CCCCN)C(=O)N[C@@H](CCCN=C(N)N)C(=O)N[C@@H](CCCCN)C(=O)N[C@@H](CCCN=C(N)N)C(=O)N1)C(=O)N[C@@H](CO)C(=O)N[C@@H](Cc1ccc(O)cc1)C(=O)N[C@@H](CCCN=C(N)N)C(=O)N[C@@H](CO)C(=O)NCC(=O)O [SGGYCGGWKRKRCTSYRSG]

MIC [1]: 0.0362 µM (≈ 0.0901 µg/mL)
SMILES: CC[C@H](C)[C@H](NC(=O)[C@H](CCCN=C(N)N)NC(=O)[C@H](CCCN=C(N)N)NC(=O)[C@@H]1CCCN1C(=O)[C@@H]1CCCN1C(=O)[C@H](CCCN=C(N)N)NC(=O)[C@@H]1CCCN1C(=O)[C@H](CCCN=C(N)N)NC(=O)[C@@H]1CCCN1C(=O)[C@H](CC(C)C)NC(=O)[C@H](Cc1ccc(O)cc1)NC(=O)[C@@H]1CCCN1C(=O)[C@@H]1CCCN1C(=O)[C@H](CCCCN)NC(=O)[C@H](CCCN=C(N)N)NC(=O)[C@@H](N)C(C)C)C(=O)N[C@@H](Cc1ccc(O)cc1)C(=O)N[C@@H](CC(N)=O)C(=O)N[C@@H](CCCN=C(N)N)C(=O)NCC(=O)O [VRKPPYLPRPRPPRRIYNRG]
